Results as given in patent publication US12552753B2, “Methods and compositions for targeting Tregs using CCR8 inhibitors” (Nanjing Immunophage Biomedical Co., Ltd., priority 2020, dated 2026).
Structures can show the parent of a compound that is named as a salt.

The compounds below were run against CCR8 (Homo sapiens, UniProt P51685) (assay: Tango assay (Tango-CCR8-Gal4-CHO-K1 cells, CCL1-stimulated, ONE-Glo luminescence)). Settings: Tango Assay IC50, Inhibition of CCR8 Tango cell in vitro.
Chain of CCR8 (P51685 whole entry, the tested form may be a part): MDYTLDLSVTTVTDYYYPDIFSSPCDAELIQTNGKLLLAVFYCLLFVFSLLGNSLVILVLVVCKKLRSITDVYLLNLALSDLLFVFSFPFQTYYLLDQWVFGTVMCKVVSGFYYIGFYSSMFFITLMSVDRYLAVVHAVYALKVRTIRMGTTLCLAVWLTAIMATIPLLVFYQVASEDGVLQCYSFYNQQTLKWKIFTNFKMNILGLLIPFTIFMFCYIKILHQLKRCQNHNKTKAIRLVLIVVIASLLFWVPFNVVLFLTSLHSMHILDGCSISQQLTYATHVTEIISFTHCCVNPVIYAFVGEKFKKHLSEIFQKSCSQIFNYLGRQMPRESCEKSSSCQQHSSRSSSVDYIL

SMILES	IC50
Cc1ccccc1C(=O)Nc1ccc(S(=O)(=O)N[C@H](C)C2CCNCC2)cc1C(C)C [Compound 197A, (R)-N-(2-isopropyl-4-(N-(1-(piperidin-4-yl)ethyl)sulfamoyl)phenyl)-2-methylbenzamide hydrochloride]	115 nM
Cc1ccccc1C(=O)Nc1ccc(S(=O)(=O)Nc2ccc3c(c2)N(CCN(C)C)C(=O)CO3)c2ccccc12 [Compound 20, N-(4-(N-(4-(2-(dimethylamino)ethyl)-3-oxo-3,4-dihydro-2H-benzo[b][1,4]oxazin-6-yl)sulfamoyl)naphthalen-1-yl)-2-methylbenzamide]	> 10000 nM
Cc1ccccc1C(=O)Nc1ccc(S(=O)(=O)N[C@H](C)C2CCNCC2)c(F)c1C [Compound 177A, (R)-N-(3-fluoro-2-methyl-4-(N-(1-(piperidin-4-yl)ethyl)sulfamoyl)phen-yl)-2-methylbenzamide, hydrochloride]	46 nM
CC(NS(=O)(=O)c1ccc(-c2cc3ccccc3[nH]2)c2ccccc12)C1CCCCC1 (stereo not shown) [Compound 149, N-(1-cyclohexylethyl)-4-(1H-indol-2-yl)naphthalene-1-sulfonamide]	> 10000 nM
C[C@H](N)C(=O)N1CCC(NS(=O)(=O)c2ccc(-c3nc4ccccc4[nH]3)cc2)CC1 [Compound 104, (S)-N-(1-(2-aminopropanoyl)piperi-din-4-yl)-4-(1H-benzo[d]imidazol-2-yl)benzenesulfonamide]	258 nM
CC(NS(=O)(=O)c1ccc2c(c1)C(=O)NCCC2)C1CC2CCC1CC2 (stereo not shown) [Compound 135, N-(1-(bicyclo[2.2.2]octan-2-yl)ethyl)-1-oxo-2,3,4,5-tetrahydro-1H-benzo[c]azepine-8-sulfonamide]	> 10000 nM
Cc1ccccc1C(=O)Nc1ccc(S(=O)(=O)NC(C)C2CCCN(C(=O)[C@H](C)N)C2)c2ccccc12 (single isomer, unassigned) [Compound 158B]	685 nM
CC(NS(=O)(=O)c1ccc(-c2nn[nH]n2)c2ccccc12)C1CCCCC1 (stereo not shown) [Compound 150, N-(1-cyclohexylethyl)-4-(2H-tetrazol-5-yl)naphthalene-1-sulfonamide]	> 10000 nM
CC(NS(=O)(=O)c1ccc2[nH]c(=O)cnc2c1)C1CC2CCC1CC2 (stereo not shown) [Compound 136, N-(1-(bicyclo[2.2.2]octan-2-yl)ethyl)-2-oxo-1,2-dihydroquinoxaline-6-sulfonamide]	> 10000 nM
CC(NS(=O)(=O)c1cccc(N2CCC(C(=O)O)C2)c1)C1CCCCC1 (stereo not shown) [Compound 154, 1-(3-(N-(1-cyclohexylethyl)sulfam-oyl)phenyl)pyrrolidine-3-carboxylic acid]	> 10000 nM
CC(=O)N1CC(C)(C)c2ccc(NS(=O)(=O)c3ccc(NC(=O)c4ccccc4C)c4ccccc34)cc21 [Compound 40, N-(4-(N-(1-acetyl-3,3-dimethylindolin-6-yl)sulfamoyl)naphthalen-1-yl)-2-methylbenzamide]	> 10000 nM
Cc1ccccc1C(=O)Nc1ccc(S(=O)(=O)NC(C)CN2CCC(C)CC2)c2ccccc12 (stereo not shown) [Compound 74, 2-methyl-N-(4-(N-(1-(4-methylpiperidin-1-yl)propan-2-yl)sulfamoyl)naphthalen-1-yl)benzamide]	647 nM
CCCN1CCCN(c2cc(NS(=O)(=O)c3ccc(NC(=O)c4ccccc4C)c4ccccc34)ccc2OC)CC1 [Compound 4, N-(4-(N-(4-methoxy-3-(4-propyl-1,4-diazepan-1-yl)phenyl)sulfamoyl)naphthalen-1-yl)-2-methylbenzamide]	1170 nM
Cc1ccccc1C(=O)Nc1ccc(S(=O)(=O)NC(C)C2CCCN(C(=O)[C@H](C)N)C2)c2ccccc12 (single isomer, unassigned) [Compound 158C]	458 nM
CCCC(=O)N1CCC(NS(=O)(=O)c2ccc(Nc3ncnc4ccccc34)c3ccccc23)CC1 [Compound 115, N-(1-butyrylpiperidin-4-yl)-4-(quinazolin-4-ylamino)naphthalene-1-sulfonamide]	1500 nM
Cc1ccccc1C(=O)Nc1ccc(S(=O)(=O)NC(C)c2cccc(NC(=O)OC(C)(C)C)c2)c2ccccc12 (stereo not shown) [Compound 71, tert-butyl (3-(1-(4-(2-methylbenzamido)naph-thalene-1-sulfonamido)ethyl)phe-nyl)carbamate]	147 nM
Cc1ccccc1C(=O)Nc1ccc(S(=O)(=O)N[C@H](C)C2CCNCC2)cc1C#N [Compound 195, (R)-N-(2-cyano-4-(N-(1-(piperidin-4-yl)ethyl)sulfamoyl)phenyl)-2-methylbenzamide]	23 nM
CCc1cc(S(=O)(=O)N[C@H](C)C2CCNCC2)ccc1NC(=O)c1ccccc1C [Compound 196, (R)-N-(2-ethyl-4-(N-(1-(piperidin-4-yl)ethyl)sulfamoyl)phenyl)-2-methylbenzamide]	18 nM
Cc1ccccc1C(=O)Nc1ccc(S(=O)(=O)NC2CCC23CCNCC3)c2ccccc12 (stereo not shown) [Compound 90, N-(4-(N-(7-azaspiro[3.5]nonan-1-yl)sulfamoyl)naphthalen-1-yl)-2-methylbenzamide]	> 10000 nM
Cc1ccccc1C(=O)Nc1ccc(S(=O)(=O)NC2CCOc3ccccc32)c2ccccc12 (stereo not shown) [Compound 29, N-(4-(N-(chroman-4-yl)sulfamoyl)naphthalen-1-yl)-2-methylbenzamide]	26 nM

Second part, the compound after the results:

IC50	SMILES
1400 nM	Cc1cc(S(=O)(=O)NC(CO)C2CCNCC2)ccc1NC(=O)c1ccccc1C (stereo not shown) [Compound 234, N-(4-(N-(2-hydroxy-1-(piperidin-4-yl)ethyl)sulfamoyl)-2-methylphenyl)-2-methylbenzamide]
886 nM	Cc1cc(S(=O)(=O)NC(C)C(C)(C)CO)ccc1NC(=O)c1ccccc1C (stereo not shown) [Compound 233, 3-((4-(N-(4-hydroxy-3,3-dimethylbutan-2-yl)sulfamoyl)-2-methylphenyl)carbamoyl)-2-methylbenzene-1-ylium]
843 nM	Cc1cc(S(=O)(=O)NC(C)C2CCOCC2)ccc1NC(=O)c1ccccc1C (stereo not shown) [Compound 239, 2-methyl-N-(2-methyl-4-(N-(1-(tetrahydro-2H-pyran-4-yl)ethyl)sulfamoyl)phen-yl)benzamide]
> 100000 nM	Cc1ccccc1C(=O)Nc1ccc(S(=O)(=O)NCc2ccccc2)c2ccccc12 [Compound 281, N-(4-(N-benzylsulfamoyl)naphthalen-1-yl)-2-methylbenzamide]
301 nM	CC(=O)N1CCC(NS(=O)(=O)c2cc(Cl)c(NC(=O)c3ccccc3C)cc2F)CC1 [Compound 312, N-(4-(N-(1-acetylpiperidin-4-yl)sulfamoyl)-2-chloro-5-fluorophenyl)-2-methylbenzamide]
24 nM	Cc1ccccc1C(=O)Nc1ccc(S(=O)(=O)N[C@H](C)C2CCN(C)CC2)cc1C#N [Compound 221, (R)-N-(2-cyano-4-(N-(1-(1-methylpiperidin-4-yl)ethyl)sulfamoyl)phenyl)-2-methylbenzamide]
9 nM	Cc1ccccc1C(=O)Nc1cc(C)c(S(=O)(=O)N[C@H](C)C2CCN(C)CC2)cc1F [Compound 303, (R)-N-(2-fluoro-5-methyl-4-(N-(1-(1-methylpiperidin-4-yl)ethyl)sulfamoyl)phenyl)-2-methylbenzamide hydrochloride]
17 nM	COc1cc(NC(=O)c2ccccc2C)c(C)cc1S(=O)(=O)N[C@H](C)C1CCN(C)CC1 [Compound 298, (R)-N-(5-methoxy-2-methyl-4-(N-(1-(1-methylpiperidin-4-yl)ethyl)sulfamoyl)phenyl)-2-methylbenzamide]
